Test results published in patent publication US20140187426A1, “CROP ENHANCEMENT” (SYNGENTA PARTICIPATIONS AG, priority 2011, published 2014).

Experiments:
Assay type in all cases: in vivo
summer barley (Pasadena) = experiment: Glasshouse trial, lodging of summer barley after leaf spray; conditions: for % lodging 30 DAA Summary barley: leaf spray at growth stage 30, 30 days after application
Description: (§1) A glasshouse trial was setup to assess growth effects of cis-jasmone on summer barley (Pasadena) and winter rye (Reknit).
(§2) Each treatment was applied as a spray to the leaves of the plant at plant growth stage 30 (start of stem elongation). Assessments of lodging were made 30 days after application; the results are expressed as percentage lodging in Table 2.

winter rye (Reknit) = experiment: Glasshouse trial, lodging of winter rye after leaf spray; conditions: for % lodging 30 DAA Winter rye: leaf spray at growth stage 30, 30 days after application
Description: as §1, §2

Poa annua [1] = experiment: Turf colour assessment, golf course fairway trial
Description: (§3) A trial was setup to assess crop (turf) enhancement effects of cis-jasmone on Poa annua in a golf course […]. Each treatment was applied as a spray to the turfgrass. Assessments of turf colour and quality were made at several intervals after application; the results are expressed on a scale of 1 (poor) to 10 (good).

Poa annua [2] = experiment: Turf quality assessment, golf course fairway trial
Description: as §3

creeping bentgrass = experiment: Turf colour assessment, golf course green trial; conditions: for Plant Colour 14DAA (2) / Plant Colour 14 DAA (3) / Plant Colour 7AA (2): scale 1 (poor) to 10 (good), 3 apps - 4 week interval; for Plant Colour 14DAA (2): 14 days after application 2; for Plant Colour 14 DAA (3): 14 days after application 3; for Plant Colour 7AA (2): after application 2
Description: A trial was setup to assess crop (turf) enhancement effects of cis-jasmone on a creeping bentgrass golf course green. Each treatment was applied as a spray to the turfgrass. Assessments of turf colour and quality were made at several intervals after application; the results are expressed on a scale of 1 (poor) to 10 (good) in Table 5.

hybrid bermudagrass = experiment: Turf growth (clipping weights), golf course fairway trial; conditions: for Clipping wt (g) 32 DAA (1): 3 apps - 4 week interval, 32 days after application 1
Description: A trial was setup to assess crop enhancement effects of cis-jasmone on a hybrid bermudagrass golf course […]. Each treatment was applied as a spray to the turfgrass. Assessments of turf growth (clipping weights in grams) were made at several intervals after application.

[3] = test system: summer oil seed rape variety Jumbo; experiment: Glasshouse trial, leaf chlorophyll content (Dualex), variety Jumbo
Description: (§4) A glasshouse trial was setup to assess growth effects of cis-jasmone on summer oil seed rape varieties Jumbo and Senator. Each treatment was applied as a spray to the leaves of the plant at plant growth stage 13 (3 leaves). Three replicates of 2 plants were sowed in pots in the greenhouse. Assessments of chlorophyll content of the leaves were made using the Dualex technique 25 days after application; the results are expressed as Dualex units of Chlorophyll in Table 8.

[4] = test system: summer oil seed rape variety Senator; experiment: Glasshouse trial, leaf chlorophyll content (Dualex), variety Senator
Description: as §4

[5] = during the entire study, versus untreated check
[6] = scale 1 (poor) to 10 (good), 50 g ai/ha, 4 applications on a 4 week schedule, 9-Jul
[7] = scale 1 (poor) to 10 (good), 50 g ai/ha, 4 applications on a 4 week schedule, 16-Jul
[8] = scale 1 (poor) to 10 (good), 50 g ai/ha, 4 applications on a 4 week schedule, 17-Jun

## CC/C=C\CC1=C(C)CCC1=O [Cis-jasmone (CJN), cis-jasmone]
Summer barley (Pasadena); 150 g AI/ha
  % lodging 30 DAA Summary barley: 70.0%
Summer barley (Pasadena); 300 g AI/ha
  % lodging 30 DAA Summary barley: 60.0%
Summer barley (Pasadena); summer barley
  initial growth (in words): faster initial growth
Summer barley (Pasadena); summer barley, versus untreated check
  effect on lodging (in words): significantly increases lodging
Winter rye (Reknit); 150 g AI/ha
  % lodging 30 DAA Winter rye: 30.0%
Winter rye (Reknit); 300 g AI/ha
  % lodging 30 DAA Winter rye: 23.3%
Winter rye (Reknit); winter rye, versus untreated check
  effect on lodging (in words): significantly increases lodging
Poa annua [1]; [5]
  effect on turf colour (in words): significantly increased turf colour
Poa annua [1]; scale 1 (poor) to 10 (good), 50 g ai/ha, 4 applications on a 4 week schedule, 4-June
  Turf colour 4-June: 7.80 b
Poa annua [1]; [6]
  Turf colour 9-Jul: 8.2 a
Poa annua [1]; scale 1 (poor) to 10 (good), 50 g ai/ha, 4 applications on a 4 week schedule, 10-June
  Turf colour 10-June: 8.16 a
Poa annua [1]; scale 1 (poor) to 10 (good), 50 g ai/ha, 4 applications on a 4 week schedule, 14-May
  Turf colour 14-May: 5.8 b
Poa annua [1]; [7]
  Turf colour 16-Jul: 7.96 a
Poa annua [1]; [8]
  Turf colour 17-Jun: 7.80 a
Poa annua [1]; scale 1 (poor) to 10 (good), 50 g ai/ha, 4 applications on a 4 week schedule, 21-May
  Turf colour 21-May: 8.08 b
Poa annua [1]; scale 1 (poor) to 10 (good), 50 g ai/ha, 4 applications on a 4 week schedule, 28-May
  Turf colour 28-May: 6.00 b
Poa annua [2]; [5]
  effect on turf quality (in words): significantly increased turf quality
Poa annua [2]; scale 1 (poor) to 10 (good), 50 g ai/ha, 4 applications on a 4 week schedule, 3-Jul
  Turf quality 3-Jul: 8.46 a
Poa annua [2]; [6]
  Turf quality 9-Jul: 8.42 a
Poa annua [2]; scale 1 (poor) to 10 (good), 50 g ai/ha, 4 applications on a 4 week schedule, 10-Jun
  Turf quality 10-Jun: 8.2 a
Poa annua [2]; [7]
  Turf quality 16-Jul: 8.1 a
Poa annua [2]; [8]
  Turf quality 17-Jun: 8.8 a
Poa annua [2]; scale 1 (poor) to 10 (good), 50 g ai/ha, 4 applications on a 4 week schedule, 23-Jul
  Turf quality 23-Jul: 8.18 a
Poa annua [2]; scale 1 (poor) to 10 (good), 50 g ai/ha, 4 applications on a 4 week schedule, 24-Jun
  Turf quality 24-Jun: 8.74 a
Poa annua [2]; scale 1 (poor) to 10 (good), 50 g ai/ha, 4 applications on a 4 week schedule, 31-Jul
  Turf quality 31-Jul: 7.96 a
Creeping bentgrass; [5]
  effect on turf colour (in words): significantly increased turf colour
Creeping bentgrass; 50 g ai/ha
  Plant Colour 14DAA (2): 5.40 e
  Plant Colour 14 DAA (3): 6.00 c
  Plant Colour 7AA (2): 5.6
Creeping bentgrass; 100 g ai/ha
  Plant Colour 14DAA (2): 6.00 c
  Plant Colour 14 DAA (3): 6.00 c
  Plant Colour 7AA (2): 5.7
Creeping bentgrass; 150 g ai/ha
  Plant Colour 14DAA (2): 6.00 c
  Plant Colour 14 DAA (3): 6.00 c
  Plant Colour 7AA (2): 6.08
Hybrid bermudagrass; 50 g ai/ha
  Clipping wt (g) 32 DAA (1): 37 ab g
Hybrid bermudagrass; 100 g ai/ha
  Clipping wt (g) 32 DAA (1): 45 a g
Hybrid bermudagrass; 150 g ai/ha
  Clipping wt (g) 32 DAA (1): 25 c g
Hybrid bermudagrass; early in the trial, versus untreated check
  effect on clipping weights (in words): significantly increased clipping weights
[3]
  effect on chlorophyll content (in words): increased chlorophyll content
[4]
  effect on chlorophyll content (in words): not
